Test results reported in patent US8637092B2, “Pharmaceutical composition for treating diabetes and its process for preparation” (Tasly Pharmaceutical Group Co., Ltd., priority 2007, dated 2014).

Tested on: STZ high-blood-glucose rats
Assay: Efficacy test: blood glucose in streptozotocin (STZ) induced high-blood-glucose rats
Format: in vivo
Conditions: STZ model male SD rats, mean ± SD, n = 10
Method: Sixty of male SD rats with SPF grade, weighed 200-220 g. Tested drugs (TL-1, TL-2 and TL-3) were powder of the extract respectively prepared by Examples 3, 8 and 9. SD rats were fasted overnight after one-week adaptation, intraperitoneal and injected a solution of 2% (W/V) STZ prepared with […] citric acid buffer solution (pH 4.4) (65 mg/kg). Three days later, the blood was sampled from tail vein to assay blood glucose. Those animals with blood glucose level equal to or higher than 16.7 mmol/L were considered to be successful model. The modeled rats were randomly divided into model group, Metformin (125 mg/kg) group and different treatment groups (corresponding to 15.5 g crude drugs/kg). After one-week adaptation and the blood glucose detection, rats were administered by gastric infusion, once a day. All of the drugs were diluted with physiological saline to prepare into suspension for administration. Animals were free to access of food and water during the 15-day testing period. At the seventh and fourteenth day after administration, the rats were fasted for two hours after administration. Respectively, blood was sampled from tail vein to assay blood glucose with blood glucose meter (one-touch ultra). At the same time, the body weights of the rats were measured. Results were expressed as mean±SD ( X±SD), and t-test was used to evaluate the significant difference of measurement data between two groups.

[1] = gastric infusion once a day, Metformin 125 mg/kg, TL 15.5 g crude drugs/kg, fasted 2 h, tail vein blood

CN(C)C(=N)N=C(N)N [Metformin]
Blood glucose level before administration (baseline before gastric infusion): 21.61 ± 2.066 mmol/L
Blood glucose level, 14 days after administration [1]: 17.54 ± 1.222 mmol/L
blood glucose level, 7 days after administration [1]: 18.64 ± 0.783 mmol/L
